Test results from ChEMBL document CHEMBL3232923, “Illudins C2 and C3 stimulate lipolysis in 3T3-L1 adipocytes and suppress adipogenesis in 3T3-L1 preadipocytes” (J Nat Prod, 2014).
The source made the active and inactive calls. No cut-off for these calls is given here.

Assays:
3T3-L1 [1] = test: Stimulation of lipolysis in mouse 3T3L1 cells at 10 uM after 48 hrs by glycerol release assay; assay type: functional, cell-based
3T3-L1 [2] = test: Stimulation of lipolysis in mouse 3T3L1 cells at 0.25 mM after 48 hrs by glycerol release assay; assay type: functional, cell-based
3T3-L1 [3] = test: Induction of AMPK-mediated HSL phosphorylation at S565 in mouse 3T3L1 cells at 10 uM after 24 to 48 hrs by immunoblotting; assay type: cell-based
[4] = Cytotoxicity against mouse 3T3L1 cells at 1 to 10 uM after 48 hrs by MTT assay; assay type: cell-based; settings: 3t3-l1, 48 h
3T3-L1 [5] = test: Inhibition of mouse 3T3L1 cell differentiation assessed as reduction in PPARgamma protein level after 8 days by immunoblotting; assay type: functional, cell-based
3T3-L1 [6] = test: Inhibition of mouse 3T3L1 cell differentiation assessed as reduction in EBPalpha protein level after 8 days by immunoblotting; assay type: functional, cell-based
3T3-L1 [7] = test: Reduction of […] protein level in mouse 3T3L1 cells at 10 uM after 24 to 48 hrs by immunoblotting; assay type: functional, cell-based
3T3-L1 [8] = test: Inhibition of mouse 3T3L1 cell differentiation assessed as reduction in intracellular lipid accumulation after 8 days by Oil Red O staining method; assay type: functional, cell-based
3T3-L1 [9] = test: Inhibition of mouse 3T3L1 cell differentiation assessed as reduction in PPARgamma gene expression after 2 days by RT-PCR analysis; assay type: functional, cell-based
[10] = Reduction of […] mRNA expression in mouse 3T3L1 cells after 24 hrs by RT-PCR analysis; assay type: functional, cell-based; settings: 3T3-L1
3T3-L1 [11] = test: Reduction of lipid content in mature mouse 3T3L1 cells after 7 days by Oil Red O staining method; assay type: functional, cell-based
[12] = Reduction of perilipin mRNA expression in mouse 3T3L1 cells after 24 hrs by RT-PCR analysis; assay type: functional, cell-based; settings: 3T3-L1
3T3-L1 [13] = test: Stimulation of lipolysis in mouse 3T3L1 cells after 48 hrs by glycerol release assay; assay type: functional, cell-based
3T3-L1 [14] = test: Reduction of perilipin protein level in mouse 3T3L1 cells at 10 uM after 24 to 48 hrs by immunoblotting; assay type: functional, cell-based
3T3-L1 [15] = test: Stimulation of lipolysis in mouse 3T3L1 cells after 48 hrs by glycerol release assay in presence of p38 MAPK inhibitor SB203580; assay type: functional, cell-based
3T3-L1 [16] = test: Inhibition of mouse 3T3L1 cell differentiation assessed as reduction in EBPalpha gene expression after 2 days by RT-PCR analysis; assay type: functional, cell-based
3T3-L1 [17] = test: Stimulation of lipolysis in mouse 3T3L1 cells after 48 hrs by glycerol release assay in presence of PKA inhibitor H89; assay type: functional, cell-based
[18] = Reduction of […] mRNA expression in mouse 3T3L1 cells at 1 to 10 uM after 24 hrs by […]; assay type: functional, cell-based; settings: 3T3-L1
3T3-L1 [19] = test: Induction of PKA-mediated HSL phosphorylation at S660 in mouse 3T3L1 cells at 10 uM after 24 to 48 hrs by immunoblotting; assay type: cell-based
3T3-L1 [20] = test: Induction of PKA-mediated HSL phosphorylation at S563 in mouse 3T3L1 cells at 10 uM after 24 to 48 hrs by immunoblotting; assay type: cell-based
[21] = Reduction of HSL mRNA expression in mouse 3T3L1 cells at 1 to 10 uM after 24 hrs by RT-PCR analysis; assay type: functional, cell-based; settings: 3T3-L1
3T3-L1 [22] = test: Stimulation of lipolysis in mouse 3T3L1 cells after 48 hrs by glycerol release assay in presence of JNK inhibitor SP600125; assay type: functional, cell-based
3T3-L1 [23] = test: Reduction of HSL protein level in mouse 3T3L1 cells at 10 uM after 24 to 48 hrs by immunoblotting; assay type: functional, cell-based
3T3-L1 [24] = test: Stimulation of lipolysis in mouse 3T3L1 cells after 48 hrs by glycerol release assay in presence of ERK inhibitor PD98059; assay type: functional, cell-based

CC(C)NCC(O)c1ccc(O)c(O)c1 (stereo not drawn)
Activity (3T3-L1 [1]): Active

CC(C)Cn1c(=O)n(C)c(=O)c2nc[nH]c21
Activity (3T3-L1 [2]): Active

C=C1C(=O)C2=C(C[C@@](C)(CO)C2)[C@](C)(O)C12CC2
Activity (3T3-L1 [3]): inactive | Activity [4]: Non-toxic | inhibition (3T3-L1 [5]): Dose-dependent effect | inhibition (3T3-L1 [6]): Dose-dependent effect | Activity (3T3-L1 [7]): Active | inhibition (3T3-L1 [8]): Dose-dependent effect | inhibition (3T3-L1 [9]): Active | Activity [10]: Dose-dependent effect | Activity (3T3-L1 [11]): Dose-dependent effect | Activity [12]: Dose-dependent effect | Activity (3T3-L1 [13]): Dose-dependent effect | Activity (3T3-L1 [14]): Active | Activity (3T3-L1 [15]): Active | inhibition (3T3-L1 [16]): Active | Activity (3T3-L1 [17]): inactive | Activity [18]: Active | Activity (3T3-L1 [19]): Active | Activity (3T3-L1 [20]): Active | Activity [21]: Active | Activity (3T3-L1 [1]): Active | Activity (3T3-L1 [22]): Active | Activity (3T3-L1 [23]): Active | Activity (3T3-L1 [24]): inactive

C=C1C(=O)C2=C(C[C@](C)(CO)C2)[C@](C)(O)C12CC2
Activity (3T3-L1 [3]): inactive | Activity [4]: Non-toxic | inhibition (3T3-L1 [5]): Dose-dependent effect | inhibition (3T3-L1 [6]): Dose-dependent effect | Activity (3T3-L1 [7]): Active | inhibition (3T3-L1 [8]): Dose-dependent effect | inhibition (3T3-L1 [9]): Active | Activity [10]: Dose-dependent effect | Activity (3T3-L1 [11]): Dose-dependent effect | Activity [12]: Dose-dependent effect | Activity (3T3-L1 [13]): Dose-dependent effect | Activity (3T3-L1 [14]): Active | Activity (3T3-L1 [15]): Active | inhibition (3T3-L1 [16]): Active | Activity (3T3-L1 [17]): inactive | Activity [18]: Active | Activity (3T3-L1 [19]): Active | Activity (3T3-L1 [20]): Active | Activity [21]: Active | Activity (3T3-L1 [1]): Active | Activity (3T3-L1 [22]): Active | Activity (3T3-L1 [23]): Active | Activity (3T3-L1 [24]): inactive
